Each structure is given as a SMILES string. Activity calls are given as the source filed them.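 How the source made its calls: active means STAT1 activated, EC50 at most 10 µM; inactive means Over 10 µM EC50.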 A value given as a limit tells only on which side of the number the result lay.

For the test, the system named is NIH 3T3 STAT1-luciferase reporter, IFN-gamma, luminescence. Briefly: enhancers of IFN-gamma-induced STAT1 luciferase – cell-based, luminescence, NIH 3T3, dose response, powders, late-stage follow-up (AID 434932).
What is called EC50 is the concentration that produces a half-maximal response. Consider `COc1ccc(-c2cc(C)nc3c(-c4ccccc4)cnn23)cc1`, for which the EC50 was 4.04 µM.
On to `Cc1cc(-c2ccc(F)cc2)n2ncc(-c3ccccc3)c2n1`, for which the EC50 was 0.0643 µM.
In the case of `COc1ccc(-c2csc(N3C(=O)CNC3=S)n2)cc1`, the EC50 is 2.01 µM.
For the compound `COc1ccc2[nH]c3c(c2c1)CCn1c-3nc2ccccc2c1=O`, the EC50 was < 0.00283 µM.
Next, `O=C(Nc1nc2ccccc2s1)c1cc2ccccc2s1`: 0.835 µM; `O=C(/C=C/Nc1ccccc1F)c1ccc(Br)cc1`: > 55.7 µM (inactive).
As to `Cc1nnc(SCC(=O)Nc2ccc(-c3nc4ccccc4s3)cc2)s1`, the EC50 was > 55.7 µM (inactive).
For `CCOC(=O)/C(C#N)=C/c1cc(C)n(-c2ccccc2)c1C`, the EC50 is 3.31 µM.
Next, `CCN(CC)c1ccc2cc(C(=O)Nc3ccccn3)c(=O)oc2c1`: 10 µM (inactive); `CC(=O)NC(=S)Nc1sc2c(c1C#N)CCCCC2`: > 55.7 µM (inactive).

The values are drawn from PubChem BioAssay AID434932 (The Scripps Research Institute Molecular Screening Center, 2010).
